ChEMBL document CHEMBL1130541, “Investigation into the preferred conformation of gabapentin for interaction with its binding site on the 2 subunit of a calcium channel” (Bioorg Med Chem Lett, 1997)

Tests used:
Rattus norvegicus = species: Rattus norvegicus; assay: Percent inhibition of binding to alpha2-delta subunit of rat calcium channel at 10 uM
[1] = Binding affinity against alpha2-delta subunit of rat calcium channel

Question: Which inhibition (Rattus norvegicus) does the source give for `C[C@H]1CC[C@](CN)(CC(=O)O)CC1` here?
Answer: The inhibition was 17%.

Question: Which IC50 [1] does the source give for `C[C@H]1CC[C@@](CN)(CC(=O)O)CC1` here?
Answer: Its IC50 is 420 nM.

Question: Which IC50 [1] does the source give for `C[C@@H]1C[C@H](C)C[C@@](CN)(CC(=O)O)C1` here?
Answer: The IC50 was 143 nM.

Question: Which inhibition (Rattus norvegicus) does the source give for `C[C@@H]1C[C@H](C)C[C@](CN)(CC(=O)O)C1` here?
Answer: The inhibition was 38%.
